Data reported in a melting point compilation (Tetko et al.; mined from patent text by program, amines drawn as free bases though some values may be those of a salt).

Row | melting point | SMILES
1 | 154 to 155 °C | CN(C)C(=O)c1nc2ccccc2n(Cc2ccccc2)c1=O
2 | 148 to 153 °C | Cc1ccc(N2CCN(Cc3ccc4c(c3)NC(=O)CO4)CC2)cc1C
3 | 138 to 140 °C | N#Cc1cc(-c2ccoc2)c2ccc(OCc3cncc(-c4ccccc4)c3)cc2c1
4 | 195 to 196 °C | CC(C)n1c(=O)n(C(N)=O)c2ccccc21
5 | 84 to 86 °C | CC(C)(C)OC(=O)N1CCN(c2ccc(O)c(C=O)c2)CC1
6 | > 350 °C | COc1ccccc1-n1c(=O)[nH]c2c(C(N)=O)nc(-c3ccc(C(N)=O)cc3)nc21
7 | 200 to 202 °C | CCC(C)(C)c1cc(-c2ccc(CC3SC(N4CCOCC4)=NC3=O)s2)ccc1O (stereo unspecified)
8 | 175 to 176 °C | COc1ccc2c(c1OC)CC(c1ccccc1)CC2(O)CN (stereo unspecified)
9 | 142 to 144 °C | COc1ccc(CCNC(=O)CCc2ccc(Cl)cc2)cc1C
10 | 134 to 136 °C | N#CSc1nc(C(F)(F)F)nc2ccccc12
11 | 243 to 245 °C | CCCn1c(=O)c2[nH]c(/C=C/c3ccc(O)c(OC)c3)nc2n(CCC)c1=O
12 | 106 to 108 °C | NCCc1cn(S(=O)(=O)c2ccccc2Cl)c2cccnc12
13 | 131 to 132 °C | CCOC(=O)c1cn(Cc2cccnc2)nc1OCc1ccc(OCc2nc(-c3ccco3)oc2C)c(OC)c1
14 | 126 to 128 °C | COC(=O)/C=C(C)/C=C/C(F)=C(C)/C=C/c1c(C)sc(C)c1C
15 | 77 to 79 °C | CC(=O)C(C)C(=O)N(c1ccc(Cl)cc1)C(C)C (stereo unspecified)
16 | > 300 °C | Nc1nc(O)c2c(n1)CCCS2
17 | 280 °C | NC(=O)c1c(Cl)cc(Cl)c(C(=O)O)c1Cl
18 | 67 °C | CCN1C(=O)CCC(C)(C)c2cc([N+](=O)[O-])ccc21
19 | 138 to 142 °C | Cc1nc(NCC(C)C)sc1C(=O)c1ccc(Cl)c([N+](=O)[O-])c1
20 | 145 to 147 °C | O=C(O)CCCC1=C(n2nc(-c3c(-c4ccccc4)nn4ccccc34)ccc2=O)CCCC1
21 | 144 to 146 °C | OC(CCc1ccc(F)cc1)c1cnc2sc3c(n12)CCCCC3 (stereo unspecified)
22 | 230 to 232 °C | O=C(O)CC1(CC(=O)O)c2ccccc2C(=O)c2ccccc21
23 | 103 to 105 °C | CC1C(=O)Oc2cc(N3CCOCC3)c(Cl)cc21 (stereo unspecified)
24 | 88.9 to 90.3 °C | CCCn1c(=O)n2c(=O)n(COCc3ccccc3)nc2c2c1ncn2COCc1ccccc1
25 | 74 °C | C=C(C)C(=O)OCCN(C(=O)c1ccc(C(=O)O)cc1C(=O)O)C(C)(C)C
26 | 137 to 138 °C | O=C(Cc1ccc(F)cc1)c1c(O)c2cccnc2n(-c2cccc(OC(F)(F)F)c2)c1=O
27 | 147 to 150 °C | Nc1ccccc1C(=O)Nc1cccc2cc(Br)cnc12
28 | 170 to 172 °C | COc1ccc(Cn2c(=O)[nH]c(=O)c3c2nc(C(C)(C)C)n3Cc2ccccc2)cc1
29 | 45 °C | CCC(=O)N1CCN(C(=O)Cl)CC1
30 | 154 to 163 °C | Cc1cn(-c2ccc(NC(=O)c3ccc(C)c(Nc4nccc(-c5cccnc5)n4)c3)cc2C(F)(F)F)cn1

More lines, now with the values behind:

Row | SMILES | melting point
31 | COc1cccc2c1C(=O)c1c(cc3c(c1O)CCC(C(C)=O)C3)C2=O (stereo unspecified) | 222 to 225 °C
32 | Cn1nc(-c2ccccc2)nc1-c1cccnc1 | 97 to 98 °C
33 | CC(C)(C)c1cccc(C[C@H](N)[C@H](O)c2cccc(Cl)c2)c1 (racemic) | 102 to 103 °C
34 | CCC(=O)Nc1cc(-c2cccnc2)nc(-c2ccco2)n1 | 252 to 253 °C
35 | CCCN1CCCC2CC3=C(CCC(=O)N3)CC21 (stereo unspecified) | 183 to 184 °C
36 | CCOC(=O)C1C(=O)C=C(c2ccccc2)N=C1c1ccccc1 (stereo unspecified) | 177 to 179 °C
37 | COc1ccc(-n2ccnc2)cc1C(O)c1c(C)cc(C)cc1C (stereo unspecified) | 187 to 188 °C
38 | NC(=O)CON=C(c1ccc(Cl)cc1)c1ccc(Cl)cc1 | 141 to 142 °C
39 | CC#CCOc1ccc(S(=O)(=O)C(CCCCCC#N)C(=O)NO)cc1 (stereo unspecified) | 120 °C
40 | O=[N+]([O-])c1cnn2c(-c3cccc(C(F)(F)F)c3)ccnc12 | 159 to 161 °C
41 | CCCOCc1nc(C(C)(C)O)c(C(=O)O)n1Cc1ccc(-c2ccccc2-c2nnn[nH]2)cc1 | 166 to 168 °C
42 | CC1(C(=O)NCCc2cccs2)CC1 | 86 to 88 °C
43 | COc1ccc2c(c1)c(Cc1nc(-c3csc4ccccc34)cs1)c(C)n2C(=O)c1ccc(Cl)cc1 | 68 to 72 °C
44 | O=C(Nc1ccc(C(=O)N2Cc3ccccc3Sc3ccccc32)cc1)c1ccccc1Cl | 116 to 119 °C
45 | CCOC(=O)Cc1ccc(NC(=O)/C=C/c2c(C)noc2-c2ccccc2)cc1 | 164 to 165 °C
46 | CCN(CC)C(C#N)c1ccc(OCc2ccccc2)cc1 (stereo unspecified) | 75 to 76 °C
47 | CCCCCCCCCCCCCCCCCCc1ccc(S(=O)(=O)Cl)cc1 | 43 to 44 °C
48 | NP(N)(=O)OCCCCl | 111 to 112 °C
49 | Cc1cccc2c1CCN=C2c1ccc(Cl)cc1 | 66 to 67 °C
50 | CC(C)(C)C(=O)OCOc1ccc(C=O)cc1OC(=O)C(C)(C)C | 58 to 60 °C
51 | CCCc1c(OCCCOc2ccc(C(=O)CCC(=O)O)c(F)c2)ccc(C(C)=O)c1O | 113 to 118 °C

Row | SMILES | melting point
52 | O=C1NC(O)C2=C1c1ccc(Cl)cc1C(c1ccccc1Cl)=NC2 (stereo unspecified) | 221 to 222 °C
53 | CN1CCC(c2nn(CCCO)c3ccccc23)CC1 | 96 to 98 °C
54 | Cc1ccc(C(=O)NC(CC(C)C)C(=O)O)c(SSc2cc(C)ccc2C(=O)NC(CC(C)C)C(=O)O)c1 (stereo unspecified) | 216 to 218 °C
55 | C=CCCCOc1ccc(-c2ccc([N+](=O)[O-])cc2)cc1 | 74 to 76 °C
56 | CCCn1nc2c(N)nc3c(c2c1CC(C)(C)O)CCCC3 | 143 to 145 °C
57 | O=C(O)[C@H]1C[C@H](NC(=O)N2CCc3ccccc32)c2c(Cl)cc(Cl)cc2N1 (relative stereo) | 251 to 252 °C
58 | O=C(CCCCSc1nc(-c2ccccc2)c(-c2ccccc2)[nH]1)NCCOCCO | 176 to 178 °C
59 | COC(=O)c1cc(N)c(N2CCCCC2)c(S(C)(=O)=O)c1 | 178 to 179 °C
60 | Cc1cccc(-c2[nH]c(C(C)(C)C)nc2-c2ccnc(-c3ccc(CN(C)C)cc3)c2)n1 | 187 °C
61 | Cc1nnc(-c2nn(-c3cccc(C(F)(F)F)c3)ccc2=O)n1-c1ccccc1 | 191 to 192 °C
62 | COc1ccc(-c2ncnc(C(F)(F)F)c2Cl)cc1 | 104 to 106 °C
63 | CC(C)(C)OC(=O)NCCCCC(=O)Nc1ccc(O)c(C(=O)O)c1 | 181 °C
64 | Nc1nc2cccnc2c2c1nc(O)n2Cc1ccccc1 | > 250 °C
65 | CN(CCN1C(=O)c2ccccc2C(C)(C)C1=O)CCN1C(=O)c2ccccc2C(C)(C)C1=O | 106 to 107 °C
66 | O=c1[nH]c2cccc(Br)c2c(=O)o1 | 280 to 281 °C
67 | COc1ccc(N=Nc2ccc(O)c(C(=O)Nc3ccc4[nH]nnc4c3)c2)cc1 | 275 to 276 °C
68 | CC(C)COc1ccccc1-c1ccc(C(N)=O)c(=O)[nH]1 | 180 °C
69 | O=C(c1ccc(Cl)cc1)N1CC2CC2(c2ccc(Cl)cc2)C1 (stereo unspecified) | 88 to 92 °C
70 | CC(=O)OCCn1ccc(=O)c(OCc2ccccc2)c1C(OC(C)=O)c1ccccc1F (stereo unspecified) | 173 to 174 °C
71 | Nc1ccc(S(=O)(=O)N2CCN(c3ccc(F)cc3)CC2)cc1 | 180 to 182 °C
